Results taken from patent US20230174526A1, “BENZOTHIAZOLYL BIARYL COMPOUND, AND PREPARATION METHOD AND USE” (SHANGHAI RINGENE BIOPHARMA CO., LTD., priority 2020, published 2023).

Legend:
[1] = molecular target: T1, CYP3A4 (Homo sapiens, UniProt P08684); test: Direct inhibition test (DI test), CYP3A4; type: in vitro ADME; settings: human liver microsomes
T1 construct: a system of 100 µL of human liver microsomes (final concentration 0.2 mg/mL); from tissue; host or cells: human liver microsomes
Experimental: Direct inhibition test (DI test): direct inhibition warm incubation was performed with a system of 100 µL of human liver microsomes (final concentration 0.2 mg/mL) containing NADPH (final concentration 1 mM), 10 µM compound, positive inhibitor cocktail (ketoconazole 10 µM, quinidine 10 µM, sulfobenzyrazole 100 µM, α-naphthoflavone 10 µM, tranylcypromine 1000 µM), a negative control (BPS with 0.1% DMSO) and a mixed probe substrate (midazolam 10 µM, testosterone 100 µM, dextromethorphan 10 µM, diclofenac 20 µM, phenacetin100 µM, mephenytoin100 µM), and the reaction was terminated after a warm incubation for 20 min.The relative enzyme activity was calculated by measuring the relative amount of metabolites produced.

[2] = molecular target: T2, KRAS^G12C/SOS1 (Homo sapiens, UniProt P01116, G12C); test: KRAS^G12C/SOS1 protein-protein interaction Binding assay (CisBio kit); settings: class symbols
T2 construct: purchased CisBio
T2 sequence (P01116 1-188 isoform P01116-2 G12C): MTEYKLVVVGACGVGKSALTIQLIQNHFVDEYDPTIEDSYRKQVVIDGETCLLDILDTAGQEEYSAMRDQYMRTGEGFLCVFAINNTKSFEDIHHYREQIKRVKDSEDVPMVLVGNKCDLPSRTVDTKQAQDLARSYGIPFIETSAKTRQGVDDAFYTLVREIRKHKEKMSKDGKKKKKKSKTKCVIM
Experimental: CisBio’s KRAS^G12C/SOS1 kit was used to test the efficacy of the compound on inhibiting the protein-protein interaction between SOS1 and KRAS^G12Cby Binding assay.Results were expressed as IC50values.
Test methods: (1) the test compound was tested at a concentration of 1000 nM. Diluted to 3-fold diluted compound of a 200-fold final concentration of 100% DMSO solution in a 384-well plate at 10 concentrations. 50 nL of 200-fold final concentration of compound was transferred to the destination plate 384 well plate using a dispenser Echo 550.50 nL of 100% DMSO was added to the negative control wells and positive control wells; (2) 4-fold final concentration of Tag1 SOS1 solution was prepared using Diluent buffer; (3) 2.5 µL of 4-fold final concentration of Tag1 SOS1 solution was added to the 384-well plate; (4) 4-fold final concentration of Tag2 KRAS^G12C solution was prepared using Diluent buffer; (5) 2.5 µL of 4-fold final concentration of Tag2 KRAS^G12C solution was added to compound wells and positive control wells, respectively; 2.5 µL of diluent buffer was added to negative control wells; (6) the 384-well plate was centrifuged at 1000 rpm for 30 seconds, shaken and mixed, and incubated at room temperature for 15 min; (7) 1-fold final concentration of Anti Tag1 TB3+ solution and 1-fold final concentration of Anti Tag2 XL665 solution were prepared with Detection buffer, and 5 µL of the mixture was added to each well after mixing the two solutions; (8) the 384-well plate was centrifuged at 1000 rpm for 30 seconds, shaken and mixed, and incubated at room temperature for 120 minutes; (9) the Envision enzyme marker was used to read
Em665/620; (10) data analysis, calculation formula; where Min signal is the mean value of negative control wells, Max signal is the mean value of positive control wells.The log value of concentration was used as the X-axis and the percentage inhibition as the Y-axis to fit the quantitative efficacy curve using the log(inhibitor) vs. response Variable slope of the quantitative efficacy curve of the analytical software GraphPad Prism 5 to derive the IC50 value of each compound on the enzyme activity.The fitting formula was: Y=Bottom+(Top Bottom)/(1+10^A((LogIC50X)^∗ HillSlope)).

[3] = In vivo pharmacokinetic parameter testing in mice; set-up: species or system ICR mice; settings: for AUC(0-t) / clearance / half-life: male, ICR, mouse, plasma, iv(1 mg/kg); for AUC(0-t): read-out: Below the curve and AUC0-t; for clearance: read-out: Clearance rate Cl; for half-life: read-out: Half-life T½ (converted)
[4] = molecular target: hERG potassium channels (Homo sapiens, UniProt Q12809); test: hERG inhibition test; type: cell-based; settings: highest test concentration 40 µM
Sequence of hERG potassium channels (Q12809 whole entry): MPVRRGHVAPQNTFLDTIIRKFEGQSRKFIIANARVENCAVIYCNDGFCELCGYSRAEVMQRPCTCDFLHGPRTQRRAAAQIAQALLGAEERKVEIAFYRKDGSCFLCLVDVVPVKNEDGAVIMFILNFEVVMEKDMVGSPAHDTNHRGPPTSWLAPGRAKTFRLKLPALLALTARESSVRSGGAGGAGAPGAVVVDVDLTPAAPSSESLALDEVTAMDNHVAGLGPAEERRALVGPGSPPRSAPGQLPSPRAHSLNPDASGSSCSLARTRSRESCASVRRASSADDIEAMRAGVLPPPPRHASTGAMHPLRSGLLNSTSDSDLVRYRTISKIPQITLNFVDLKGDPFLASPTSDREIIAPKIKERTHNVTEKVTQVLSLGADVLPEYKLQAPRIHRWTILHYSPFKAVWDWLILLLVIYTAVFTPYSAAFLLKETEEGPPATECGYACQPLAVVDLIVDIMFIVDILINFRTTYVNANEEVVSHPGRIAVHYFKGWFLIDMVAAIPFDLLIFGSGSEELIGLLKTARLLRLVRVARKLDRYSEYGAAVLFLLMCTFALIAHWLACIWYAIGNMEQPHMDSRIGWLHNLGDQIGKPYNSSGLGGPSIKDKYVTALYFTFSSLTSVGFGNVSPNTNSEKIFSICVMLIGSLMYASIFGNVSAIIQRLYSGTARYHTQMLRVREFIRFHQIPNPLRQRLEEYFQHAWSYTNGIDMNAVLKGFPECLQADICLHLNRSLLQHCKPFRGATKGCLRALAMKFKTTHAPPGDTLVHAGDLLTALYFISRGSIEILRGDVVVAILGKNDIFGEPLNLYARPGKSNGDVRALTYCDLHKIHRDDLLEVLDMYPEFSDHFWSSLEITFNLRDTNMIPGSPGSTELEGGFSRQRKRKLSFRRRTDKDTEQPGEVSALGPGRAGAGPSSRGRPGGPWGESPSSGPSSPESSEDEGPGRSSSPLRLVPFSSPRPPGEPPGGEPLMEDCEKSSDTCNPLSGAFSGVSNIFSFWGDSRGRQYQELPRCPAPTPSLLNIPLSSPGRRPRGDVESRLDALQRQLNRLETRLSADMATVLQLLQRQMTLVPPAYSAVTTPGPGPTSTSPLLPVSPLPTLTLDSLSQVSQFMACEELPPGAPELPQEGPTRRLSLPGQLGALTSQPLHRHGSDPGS

[5] = Metabolic stability assay, mouse liver microsomes; type: in vitro ADME; settings: mouse liver microsomes 0.5 mg/mL, 1 µM compound, read-out: Liver microsomal stability (T½ /min) Mouse
Experimental: (§1) Metabolic stability assay: A warm incubation for metabolic stability was performed with a system of 150 µL of liver microsomes (final concentration 0.5 mg/mL) containing NADPH (final concentration 1 mM), 1 µM of the test compound and positive control midazolam or negative control atenolol, and the reaction was terminated with acetonitrile containing tinidazole at 0 min, 5 min, 10 min and 30 min, respectively. The reaction was vortexed for 10 min and centrifuged at 15000 rmp for 10 min, and 50 µL of supernatant was taken into the 96-well plate for sampling. The metabolic stability of the compound was calculated by measuring the relative reduction of the drugs.

[6] = test system: phosphorylated ERK levels of MiaPaca-2; test: ERK phosphorylation (western blot), MiaPaca-2; type: cell-based; settings: Homo sapiens, MIA PaCa-2, 24 h
Experimental: Test method 3 (ERK phosphorylation): Miapaca-2 or H358 cells were inoculated at certain concentrations in 96-well plates and incubated overnight at 37° C., 5% CO2 in a cell culture incubator, and serial dilutions of the test compound (5 concentrations, 3-fold dilution) were added to the plates the next day for 24 h (Miapaca-2) or 3 h (H358), then lysis solution containing protease and phosphatase inhibitor were added to lyse the cells to extract proteins and western blot method was used to detect the level of p-ERK.

[7] = Metabolic stability assay, human liver microsomes; type: in vitro ADME; settings: human liver microsomes 0.5 mg/mL, 1 µM compound, read-out: Liver microsomal stability (T½ /min) human
Experimental: as §1

[8] = test system: NCI-H358 (lung cancer) cells; test: Proliferation test method 1 (2D, MTT), NCI-H358; type: cell-based; settings: Homo sapiens, 5-7 days, read-out: IC50 proliferation inhibitory activity against NCI-H358
Experimental: Test method 1 (2D):NCI-H358 (lung cancer) and MiaPaca-2 cells (pancreatic cancer) cells (100 µL/well, 20,000 cells/mL) were inoculated in 96-well culture plates supplemented with 10% fetal bovine serum and 1% penicillin/streptomycin sulfate, respectively.Using 0.5% dimethyl sulfoxide as a blank control, cells were treated with a solution of the compound to be tested at a starting concentration of 10 µM, tripled diluted testing solution of the compound in eight gradients were used to treat cells, and then incubated in a 5% CO2 incubator for a certain period of time (5-7 days).At the end of incubation, 10 µL of MTT stock solution (5 mg/mL) was added to each well.The culture plates were incubated at 37° C. for 4 h and then the medium was removed.Dimethyl sulfoxide (100 µL) was added to each well and then shaken sufficiently. The absorbance of the product formazanwas measured at 570 nm on the Thermo Scientific Varioskan Flash multimode reader.IC50 values were obtained by fitting dose-response data into a three-parameter nonlinear regression model using GraphPad Prism 6.0 software.

[9] = Metabolic stability assay, monkey liver microsomes; type: in vitro ADME; settings: monkey liver microsomes 0.5 mg/mL, 1 µM compound, read-out: Liver microsomal stability (T½ /min) monkey
Experimental: as §1

T1 sequence (P08684 whole entry): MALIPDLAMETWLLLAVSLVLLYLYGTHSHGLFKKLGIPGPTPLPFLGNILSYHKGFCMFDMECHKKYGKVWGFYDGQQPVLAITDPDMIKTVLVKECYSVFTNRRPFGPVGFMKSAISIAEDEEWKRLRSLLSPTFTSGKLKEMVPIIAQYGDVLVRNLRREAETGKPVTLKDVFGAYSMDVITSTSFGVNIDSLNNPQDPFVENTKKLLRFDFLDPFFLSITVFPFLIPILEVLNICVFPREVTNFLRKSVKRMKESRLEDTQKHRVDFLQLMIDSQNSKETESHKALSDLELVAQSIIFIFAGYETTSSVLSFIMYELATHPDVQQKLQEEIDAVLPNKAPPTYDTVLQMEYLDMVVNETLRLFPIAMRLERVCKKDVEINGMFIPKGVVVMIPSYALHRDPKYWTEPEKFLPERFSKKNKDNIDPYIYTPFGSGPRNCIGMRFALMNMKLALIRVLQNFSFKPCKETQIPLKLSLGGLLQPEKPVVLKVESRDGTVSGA

| SMILES | IC50 [1] [nM] | IC50 [2] [nM] | AUC compared to the comparative compound 1 ([3]; in words) | clearance rate Cl compared to the comparative compound 1 ([3]; in words) | pharmacokinetic properties in mice compared to comparative compound 1 ([3]; in words) | AUC(0-t) [3] [µM·h] | clearance [3] [mL/min/kg] | half-life [3] [min] | IC50 [4] [nM] | half-life at 1 µM [5] [min] | IC50 [6] [nM] | half-life at 1 µM [7] [min] | in vivo metabolic half-life compared to the comparative compound 1 ([3]; in words) | IC50 [8] [nM] | half-life at 1 µM [9] [min] |
| --- | --- | --- | --- | --- | --- | --- | --- | --- | --- | --- | --- | --- | --- | --- | --- |
| C=CC(=O)N1C[C@@H]2C(=O)N(C)c3cnc4c(F)c(-c5ccc(F)c6sc(N)nc56)c(Cl)cc4c3N2C[C@H]1C (single isomer, unassigned) [Example 17-1] | > 10000 | 50 to 200 | significantly increased | significantly lower | significantly better | 3.31 ± 0.187 | 9.04 ± 0.5 | 66 | > 20000 | > 30 |  |  |  |  |  |
| C=CC(=O)N1CCN(c2c(C#N)c(OC[C@@H]3CCCN3C)nc3c(F)c(-c4ccc(F)c5sc(N)nc45)c(Cl)cc23)CC1 [Example 3, 4-(4-Piperazinylacryloylpiperazin-1-yl)-7-(2-Amino-7-Fluorobenzo[d]Thiazol-4-yl)-6-Chloro-8-Fluoro-2-(((S)-1-Methylpyrrolidin-2-Yl)Methoxy)Quinoline-3-Cyano] | > 10000 | < 50 | significantly increased | significantly lower | significantly better | 4.09 ± 0.373 | 6.35 ± 0.67 | 390 | > 20000 |  | < 500 | > 30 | significantly longer | < 100 | > 30 |
| C=CC(=O)N1CCN(c2c(C#N)cnc3c(F)c(-c4ccc(F)c5sc(N)nc45)c(Cl)cc23)CC1 [Example 8] | > 10000 | < 50 | significantly increased | significantly lower | significantly better | 2.85 ± 0.363 | 11.5 ± 1.52 | 31.2 | > 20000 | > 30 | < 500 |  |  | < 100 | > 30 |
| C=CC(=O)N1CCN(c2nc(OC[C@@H]3CCCN3C)nc3c(F)c(-c4ccc(F)c5sc(N)nc45)c(Cl)cc23)C[C@H]1C [Example 11, 1-((2R)-4-(7-(2-Amino-7-Fluorobenzo [d] Thiazol-4-yl) -6-Chloro-8-Fluoro-2-(((S)-1-Methylpyrrolidin-2-yl) Methoxy) Quinazolin-4-yl)-2-Methylpiperazin-1-yl) Prop-2-En-1-One] | > 10000 | 50 to 200 |  |  |  |  |  |  | > 20000 |  | < 500 | > 30 |  | < 100 |  |
| C=CC(=O)N1CCN(c2c(C#N)c(N3CC(N(C)C)C3)nc3c(F)c(-c4ccc(F)c5sc(N)nc45)c(Cl)cc23)CC1 [Example 21, 4-(4-acryloyl Piperazin-1-yl)-7-(2-Amino-7-Fluorobenzo [d] Thiazol-4-yl) -6-Chloro-2-(3-(Dimethylamino) Azetidine-1-yl)-8-Fluoroquinolin-3 -Cyano] | > 10000 | < 50 |  |  | significantly better | 1.29 ± 0.07 | 21.6 ± 1.05 | 78 | > 20000 |  | < 500 |  |  | < 100 | > 30 |
